pEC50: −log10 of the molar value.
test system: RS4;11 cells; test: RS4;11 cell viability assay (CellTiter Glo); type: cell-based, human; settings: Homo sapiens, RS4-11, 48 h, 50,000 cells per well, 10% human serum, 48 hours; read-out: RS4; 11 EC50 Values;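 also: acute lymphoblastic leukemia line RS4,11, EC50 derived from percentage of viable cells after treatment relative to untreated controls, cell killing taken as a measure of Bcl-2 inhibition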
Method: The acute lymphoblastic leukemia (ALL) cell line RS4;11 was used as the primary human cell line to assess the cellular activity of Bcl-2 selective agents in vitro and their efficacy in vivo.
Cell cytotoxicity EC50 values were assessed using CellTiter Glo (Promega) according to the manufacturer's recommendations. The EC50 values were determined as a percentage of viable cells following treatment compared to the untreated control cells.

| SMILES | pEC50 |
| --- | --- |
| CC1(C)CCC(CN2CCN(c3ccc(C(=O)NS(=O)(=O)c4ccc(OCC5CCN(C(CF)CF)CC5)c([N+](=O)[O-])c4)c(Oc4cnc5[nH]ccc5c4)c3)CC2)=C(c2ccc(Cl)cc2)C1 [Example 129, 4-(4-{[2-(4-chlorophenyl)-4,4-dimethylcyclohex-1-en-1-yl]methyl}piperazin-1-yl)-N-{[4-({1-[2-fluoro-1-(fluoromethyl)ethyl]piperidin-4-yl}methoxy)-3-nitrophenyl]sulfonyl}-2-(1H-pyrrolo[2,3-b]pyridin-5-yloxy)benzamide] | 7.83 |
| CC1(C)CCC(CN2CCN(c3ccc(C(=O)NS(=O)(=O)c4ccc(N[C@@H]5CCN(C6CCOCC6)C5)c([N+](=O)[O-])c4)c(Oc4cnc5[nH]ccc5c4)c3)CC2)=C(c2ccc(Cl)cc2)C1 [Example 130, 4-(4-{[2-(4-chlorophenyl)-4,4-dimethylcyclohex-1-en-1-yl]methyl}piperazin-1-yl)-N-[(3-nitro-4-{[(3R)-1-tetrahydro-2H-pyran-4-ylpyrrolidin-3-yl]amino}phenyl)sulfonyl]-2-(1H-pyrrolo[2,3-b]pyridin-5-yloxy)benzamide] | 7.98 |
| CC1(C)CCC(CN2CCN(c3ccc(C(=O)NS(=O)(=O)c4ccc(N[C@@H]5CCN(C6CCOC(C)(C)C6)C5)c([N+](=O)[O-])c4)c(Oc4cnc5[nH]ccc5c4)c3)CC2)=C(c2ccc(Cl)cc2)C1 (stereo partly drawn) [Example 131, 4-(4-{[2-(4-chlorophenyl)-4,4-dimethylcyclohex-1-en-1-yl]methyl}piperazin-1-yl)-N-[(4-{[(3R)-1-(2,2-dimethyltetrahydro-2H-pyran-4-yl)pyrrolidin-3-yl]amino}-3-nitrophenyl)sulfonyl]-2-(1H-pyrrolo[2,3-b]pyridin-5-yloxy)benzamide] | 7.90 |
| CC1(C)CCC(CN2CCN(c3ccc(C(=O)NS(=O)(=O)c4ccc(N[C@H]5CCN(C6CCOCC6)C5)c([N+](=O)[O-])c4)c(Oc4cnc5[nH]ccc5c4)c3)CC2)=C(c2ccc(Cl)cc2)C1 [Example 132, 4-(4-{[2-(4-chlorophenyl)-4,4-dimethylcyclohex-1-en-1-yl]methyl}piperazin-1-yl)-N-[(3-nitro-4-{[(3S)-1-tetrahydro-2H-pyran-4-ylpyrrolidin-3-yl]amino}phenyl)sulfonyl]-2-(1H-pyrrolo[2,3-b]pyridin-5-yloxy)benzamide] | 7.66 |
| CC1(C)CCC(CN2CCN(c3ccc(C(=O)NS(=O)(=O)c4ccc(N[C@H]5CCN(C6CCOC(C)(C)C6)C5)c([N+](=O)[O-])c4)c(Oc4cnc5[nH]ccc5c4)c3)CC2)=C(c2ccc(Cl)cc2)C1 (stereo partly drawn) [Example 133, 4-(4-{[2-(4-chlorophenyl)-4,4-dimethylcyclohex-1-en-1-yl]methyl}piperazin-1-yl)-N-[(4-{[(3S)-1-(2,2-dimethyltetrahydro-2H-pyran-4-yl)pyrrolidin-3-yl]amino}-3-nitrophenyl)sulfonyl]-2-(1H-pyrrolo[2,3-b]pyridin-5-yloxy)benzamide] | 7.50 |
| CN1CCOC(CNc2ccc(S(=O)(=O)NC(=O)c3ccc(N4CCN(CC5=C(c6ccc(Cl)cc6)CC(C)(C)CC5)CC4)cc3Oc3cnc4[nH]ccc4c3)cc2[N+](=O)[O-])C1 (stereo not drawn) [Example 134, 4-(4-{[2-(4-chlorophenyl)-4,4-dimethylcyclohex-1-en-1-yl]methyl}piperazin-1-yl)-N-[(4-{[(4-methylmorpholin-2-yl)methyl]amino}-3-nitrophenyl)sulfonyl]-2-(1H-pyrrolo[2,3-b]pyridin-5-yloxy)benzamide] | 8.60 |
| COCCN1CCOC(CNc2ccc(S(=O)(=O)NC(=O)c3ccc(N4CCN(CC5=C(c6ccc(Cl)cc6)CC(C)(C)CC5)CC4)cc3Oc3cnc4[nH]ccc4c3)cc2[N+](=O)[O-])C1 (stereo not drawn) [Example 135, 4-(4-{[2-(4-chlorophenyl)-4,4-dimethylcyclohex-1-en-1-yl]methyl}piperazin-1-yl)-N-{[4-({[4-(2-methoxyethyl)morpholin-2-yl]methyl}amino)-3-nitrophenyl]sulfonyl}-2-(1H-pyrrolo[2,3-b]pyridin-5-yloxy)benzamide] | 8.63 |
| CC(=O)N1CCOC(CNc2ccc(S(=O)(=O)NC(=O)c3ccc(N4CCN(CC5=C(c6ccc(Cl)cc6)CC(C)(C)CC5)CC4)cc3Oc3cnc4[nH]ccc4c3)cc2[N+](=O)[O-])C1 (stereo not drawn) [Example 136, N-[(4-{[(4-acetylmorpholin-2-yl)methyl]amino}-3-nitrophenyl)sulfonyl]-4-(4-{[2-(4-chlorophenyl)-4,4-dimethylcyclohex-1-en-1-yl]methyl}piperazin-1-yl)-2-(1H-pyrrolo[2,3-b]pyridin-5-yloxy)benzamide] | 8.53 |
| CC1(C)CCC(CN2CCN(c3ccc(C(=O)NS(=O)(=O)c4ccc(NCC5(F)CCOCC5)c([N+](=O)[O-])c4)c(Oc4cnc5[nH]ccc5c4)c3)CC2)=C(c2ccc(Cl)cc2)C1 [Example 138, 4-(4-{[2-(4-chlorophenyl)-4,4-dimethylcyclohex-1-en-1-yl]methyl}piperazin-1-yl)-N-[(4-{[(4-fluorotetrahydro-2H-pyran-4-yl)methyl]amino}-3-nitrophenyl)sulfonyl]-2-(1H-pyrrolo[2,3-b]pyridin-5-yloxy)benzamide] | 8.82 |

Next, values leading:

| pEC50 | SMILES |
| --- | --- |
| 7.77 | CC1(C)CCC(CN2CCN(c3ccc(C(=O)NS(=O)(=O)c4ccc(NC5CCN(C6COC6)CC5)c([N+](=O)[O-])c4)c(Oc4cnc5[nH]ccc5c4)c3)CC2)=C(c2ccc(Cl)cc2)C1 [Example 139, 4-(4-{[2-(4-chlorophenyl)-4,4-dimethylcyclohex-1-en-1-yl]methyl}piperazin-1-yl)-N-({3-nitro-4-[(1-oxetan-3-ylpiperidin-4-yl)amino]phenyl}sulfonyl)-2-(1H-pyrrolo[2,3-b]pyridin-5-yloxy)benzamide] |
| 7.89 | CC1(C)CCC(CN2CCN(c3ccc(C(=O)NS(=O)(=O)c4ccc(NC5CCN(C6CCC6)CC5)c([N+](=O)[O-])c4)c(Oc4cnc5[nH]ccc5c4)c3)CC2)=C(c2ccc(Cl)cc2)C1 [Example 140, 4-(4-{[2-(4-chlorophenyl)-4,4-dimethylcyclohex-1-en-1-yl]methyl}piperazin-1-yl)-N-({4-[(1-cyclobutylpiperidin-4-yl)amino]-3-nitrophenyl}sulfonyl)-2-(1H-pyrrolo[2,3-b]pyridin-5-yloxy)benzamide] |
| 7.69 | CC1(C)CCC(CN2CCN(c3ccc(C(=O)NS(=O)(=O)c4ccc(NC5CCN(C6CCOC(C)(C)C6)CC5)c([N+](=O)[O-])c4)c(Oc4cnc5[nH]ccc5c4)c3)CC2)=C(c2ccc(Cl)cc2)C1 (stereo not drawn) [Example 141, 4-(4-{[2-(4-chlorophenyl)-4,4-dimethylcyclohex-1-en-1-yl]methyl}piperazin-1-yl)-N-[(4-{[1-(2,2-dimethyltetrahydro-2H-pyran-4-yl)piperidin-4-yl]amino}-3-nitrophenyl)sulfonyl]-2-(1H-pyrrolo[2,3-b]pyridin-5-yloxy)benzamide] |
| 6.46 | CC1(C)CCC(CN2CCN(c3ccc(C(=O)NS(=O)(=O)c4ccc(N[C@H]5CCN(C6CC6)C5)c([N+](=O)[O-])c4)c(Oc4cnc5[nH]ccc5c4)c3)CC2)=C(c2ccc(Cl)cc2)C1 [Example 142, 4-(4-{[2-(4-chlorophenyl)-4,4-dimethylcyclohex-1-en-1-yl]methyl}piperazin-1-yl)-N-[(4-{[(3S)-1-cyclopropylpyrrolidin-3-yl]amino}-3-nitrophenyl)sulfonyl]-2-(1H-pyrrolo[2,3-b]pyridin-5-yloxy)benzamide] |
| 7.72 | CC1(C)CCC(CN2CCN(c3ccc(C(=O)NS(=O)(=O)c4ccc(NC5CCN(C6CCOC6)CC5)c([N+](=O)[O-])c4)c(Oc4cnc5[nH]ccc5c4)c3)CC2)=C(c2ccc(Cl)cc2)C1 (stereo not drawn) [Example 143, 4-(4-{[2-(4-chlorophenyl)-4,4-dimethylcyclohex-1-en-1-yl]methyl}piperazin-1-yl)-N-({3-nitro-4-[(1-tetrahydrofuran-3-ylpiperidin-4-yl)amino]phenyl}sulfonyl)-2-(1H-pyrrolo[2,3-b]pyridin-5-yloxy)benzamide] |
| 7.67 | CC1(C)CCC(CN2CCN(c3ccc(C(=O)NS(=O)(=O)c4ccc(N[C@@H]5CCN(C6CC6)C5)c([N+](=O)[O-])c4)c(Oc4cnc5[nH]ccc5c4)c3)CC2)=C(c2ccc(Cl)cc2)C1 [Example 144, 4-(4-{[2-(4-chlorophenyl)-4,4-dimethylcyclohex-1-en-1-yl]methyl}piperazin-1-yl)-N-[(4-{[(3R)-1-cyclopropylpyrrolidin-3-yl]amino}-3-nitrophenyl)sulfonyl]-2-(1H-pyrrolo[2,3-b]pyridin-5-yloxy)benzamide] |
| 8.40 | CC1(C)CCC(CN2CCN(c3ccc(C(=O)NS(=O)(=O)c4ccc(NC[C@@H]5CCN(C6CCOCC6)C5)c([N+](=O)[O-])c4)c(Oc4cnc5[nH]ccc5c4)c3)CC2)=C(c2ccc(Cl)cc2)C1 [Example 145, 4-(4-{[2-(4-chlorophenyl)-4,4-dimethylcyclohex-1-en-1-yl]methyl}piperazin-1-yl)-N-{[3-nitro-4-({[(3S)-1-tetrahydro-2H-pyran-4-ylpyrrolidin-3-yl]methyl}amino)phenyl]sulfonyl}-2-(1H-pyrrolo[2,3-b]pyridin-5-yloxy)benzamide] |
| 7.72 | CC(C)(CO)CNc1ccc(S(=O)(=O)NC(=O)c2ccc(N3CCN(CC4=C(c5ccc(Cl)cc5)CC(C)(C)CC4)CC3)cc2Oc2cnc3[nH]ccc3c2)cc1[N+](=O)[O-] [Example 146, 4-(4-{[2-(4-chlorophenyl)-4,4-dimethylcyclohex-1-en-1-yl]methyl}piperazin-1-yl)-N-({4-[(3-hydroxy-2,2-dimethylpropyl)amino]-3-nitrophenyl}sulfonyl)-2-(1H-pyrrolo[2,3-b]pyridin-5-yloxy)benzamide] |
| 7.58 | CC1(C)CCC(CN2CCN(c3ccc(C(=O)NS(=O)(=O)c4ccc(NCC5CCCN(S(C)(=O)=O)C5)c([N+](=O)[O-])c4)c(Oc4cnc5[nH]ccc5c4)c3)CC2)=C(c2ccc(Cl)cc2)C1 (stereo not drawn) [Example 147, 4-(4-{[2-(4-chlorophenyl)-4,4-dimethylcyclohex-1-en-1-yl]methyl}piperazin-1-yl)-N-{[4-({[1-(methylsulfonyl)piperidin-3-yl]methyl}amino)-3-nitrophenyl]sulfonyl}-2-(1H-pyrrolo[2,3-b]pyridin-5-yloxy)benzamide] |
